Legend:
Type in all cases: cell-based
[1] = tested on: methicillin-resistant Staphylococcus epidermidis (MRSE); test: MIC, two-fold agar dilution (CLSI), clinical isolates
Method in brief: (§1)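 Susceptibility was tested using CLSI two-fold agar dilution against the strains examined.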

[2] = tested on: Enterococcus faecium (EFM); test: as above
Method in brief: as §1

[3] = tested on: methicillin-resistant Staphylococcus aureus (MRSA); test: as above
Method in brief: as §1

[4] = tested on: methicillin-sensitive Staphylococcus aureus (MSSA); test: as above
Method in brief: as §1

[5] = tested on: Moraxella catarrhalis (BCA); test: as above
Method in brief: as §1

[6] = tested on: Escherichia coli (including ESBLs, non-ESBLs); test: as above
Method in brief: as §1

[7] = tested on: Enterococcus faecalis (EFA); test: as above
Method in brief: as §1

[8] = tested on: methicillin-sensitive Staphylococcus epidermidis (MSSE); test: as above
Method in brief: as §1

[9] = tested on: Streptococcus pneoumoniae (SPN); test: as above
Method in brief: as §1

[10] = tested on: HCT-116 colorectal cancer cell line; test: CCK-8 proliferation inhibition; conditions: Homo sapiens, HCT-116, 72 h, concentration of 30 μM; 72 hours; CCK-8; read-out: HCT116 inhibition rate/%
Method in brief: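 Viability read-out: 1:10 diluted CCK-8 after 72 h compound exposure at 37 °C, 5% CO2. Cells (2000/well, McCoy's 5A plus 10% newborn bovine serum) pre-cultured overnight; vehicle control 1‰ DMSO.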

O=C(C[C@@H](CC1CCCC1)C(=O)N1CC2(CC2)C[C@H]1C(=O)Nc1nncs1)NO [Example 74]
Anti-bacterial activity (MIC), strain MRSE 15-1 ([1]; clinical isolate MRSE 15-1): 0.5 µg/mL
Anti-bacterial activity (MIC), strain MRSE 15-2 ([1]; clinical isolate MRSE 15-2): 1 µg/mL
Anti-bacterial activity (MIC), strain MRSE 15-3 ([1]; clinical isolate MRSE 15-3): 1 µg/mL
Anti-bacterial activity (MIC), strain MRSE 15-7 ([1]; clinical isolate MRSE 15-7): 4 µg/mL
Anti-bacterial activity (MIC) ([2]; strain EFM 15-1): 16 µg/mL
Anti-bacterial activity (MIC) ([2]; strain EFM 15-2): 32 µg/mL
Anti-bacterial activity (MIC) ([2]; strain EFM 15-3): 4 µg/mL
Anti-bacterial activity (MIC) ([2]; strain EFM 15-4): 32 µg/mL
Anti-bacterial activity (MIC) ([2]; strain EFM 15-5): 4 µg/mL
Anti-bacterial activity (MIC) ([2]; strain EFM 15-6): 32 µg/mL
Anti-bacterial activity (MIC), strain MRSA 15-1 ([3]; clinical isolate MRSA 15-1): 4 µg/mL
Anti-bacterial activity (MIC), strain MRSA 15-2 ([3]; clinical isolate MRSA 15-2): 8 µg/mL
Anti-bacterial activity (MIC), strain MRSA 15-3 ([3]; clinical isolate MRSA 15-3): 5 µg/mL
Anti-bacterial activity (MIC), strain MRSA 15-4 ([3]; clinical isolate MRSA 15-4): 8 µg/mL
Anti-bacterial activity (MIC), strain MSSA 15-3 ([4]; clinical isolate MSSA 15-3): 4 µg/mL
Anti-bacterial activity (MIC), strain MSSA 15-4 ([4]; clinical isolate MSSA 15-4): 4 µg/mL
Anti-bacterial activity (MIC), strain MSSA 15-5 ([4]; clinical isolate MSSA 15-5): 2 µg/mL
Anti-bacterial activity (MIC), strain MSSA 15-6 ([4]; clinical isolate MSSA 15-6): 4 µg/mL
Anti-bacterial activity (MIC) ([5]; strain BCA 14-1): > 32 µg/mL
Anti-bacterial activity (MIC) ([5]; strain BCA 14-4): > 32 µg/mL
Anti-bacterial activity (MIC) ([5]; strain BCA 14-5): 16 µg/mL
Anti-bacterial activity (MIC) ([5]; strain BCA 14-6): > 32 µg/mL
Anti-bacterial activity (MIC) ([5]; strain BCA 14-7): > 32 µg/mL
Anti-bacterial activity (MIC) ([5]; strain BCA 14-8): > 32 µg/mL
Anti-bacterial activity (MIC) ([5]; strain BCA 14-10): > 32 µg/mL
Anti-bacterial activity (MIC), strain ECO+ 15-1 ([6]; clinical isolate ECO+ 15-1): 32 µg/mL
Anti-bacterial activity (MIC), strain ECO+ 15-2 ([6]; clinical isolate ECO+ 15-2): > 32 µg/mL
Anti-bacterial activity (MIC), strain ECO+ 15-3 ([6]; clinical isolate ECO+ 15-3): > 32 µg/mL
Anti-bacterial activity (MIC), strain ECO+ 15-4 ([6]; clinical isolate ECO+ 15-4): > 32 µg/mL
Anti-bacterial activity (MIC), strain ECO− 15-1 ([6]; clinical isolate ECO− 15-1): > 32 µg/mL
Anti-bacterial activity (MIC), strain ECO− 15-2 ([6]; clinical isolate ECO− 15-2): > 32 µg/mL
Anti-bacterial activity (MIC), strain ECO− 15-3 ([6]; clinical isolate ECO− 15-3): > 32 µg/mL
Anti-bacterial activity (MIC), strain ECO− 15-4 ([6]; clinical isolate ECO− 15-4): > 32 µg/mL
Anti-bacterial activity (MIC) ([7]; strain EFA 15-1): > 32 µg/mL
Anti-bacterial activity (MIC) ([7]; strain EFA 15-2): > 32 µg/mL
Anti-bacterial activity (MIC) ([7]; strain EFA 15-3): 16 µg/mL
Anti-bacterial activity (MIC) ([7]; strain EFA 15-4): > 32 µg/mL
Anti-bacterial activity (MIC) ([7]; strain EFA 15-5): > 32 µg/mL
Anti-bacterial activity (MIC) ([7]; strain EFA 15-6): > 32 µg/mL
Anti-bacterial activity (MIC) ([7]; strain EFA 15-9): > 32 µg/mL
Anti-bacterial activity (MIC), strain MSSE 15-3 ([8]; clinical isolate MSSE 15-3): 1 µg/mL
Anti-bacterial activity (MIC), strain MSSE 15-4 ([8]; clinical isolate MSSE 15-4): 1 µg/mL
Anti-bacterial activity (MIC), strain MSSE 15-5 ([8]; clinical isolate MSSE 15-5): 1 µg/mL
Anti-bacterial activity (MIC), strain MSSE 15-6 ([8]; clinical isolate MSSE 15-6): 1 µg/mL
Anti-bacterial activity (MIC) ([9]; strain SPN 16-2): 32 µg/mL
Anti-bacterial activity (MIC) ([9]; strain SPN 16-4): 4 µg/mL
inhibition at 30 µM [10]: 1%

From patent US10738028B2, “Spiro three-membered ring, spiro five-membered ring peptide deformylase inhibitor and use thereof in antibacteria and anti-tumor” (priority 2016, dated 2020)
